These results are taken from ChEMBL document CHEMBL1142351, “Synthesis and characterization of 8-ethynyl-1,3-dihydro-benzo[b][1,4]diazepin-2-one derivatives: part 2. New potent non-competitive metabotropic glutamate receptor 2/3 antagonists” (Bioorg Med Chem Lett, 2008).

Assay [1] has as its target Metabotropic glutamate receptor 3 (Rattus norvegicus) (UniProt P31422). Kind of assay: Antagonist activity at rat mGluR3 transiently transfected in CHO cells expressing GIRKs assessed as inhibition of glutamate-induced reversible inward K+ current. Type of assay: functional, cell-based.
The target of assay [2] is T1, Metabotropic glutamate receptor 2 (Rattus norvegicus, UniProt P31421). Kind of assay: Displacement of [3H]LY354740 from rat recombinant mGluR2 expressed in CHO cells. Type of assay: cell-based. Background: In a radioligand displacement assay an active substance lowers the binding of a labelled ligand.
Assay [3] has as its target Metabotropic glutamate receptor 8 (Rattus norvegicus, UniProt P70579). Kind of assay: (§1) Displacement of [3H]-L-AP4 from rat mGluR8.
A short description of assay [4]: Binding affinity to GABAA.
The target of assay [5] is T1, Metabotropic glutamate receptor 2. Kind of assay: Antagonist activity at rat mGluR2 assessed as effect on (1S,3R)-ACPD-induced inhibition of forskolin-stimulated cAMP production. Type of assay: functional.
Assay [6] is described as follows: Binding affinity to NMDA.
Assay [7] concerns the target Metabotropic glutamate receptor 2 (Rattus norvegicus) (UniProt P31421). As to the kind of experiment: Antagonist activity at rat mGluR2 transiently transfected in CHO cells expressing GIRKs assessed as inhibition of glutamate-induced reversible inward K+ current. Format: functional, cell-based.
Assay [8] concerns the target T1, Metabotropic glutamate receptor 2. Kind of assay: Displacement of [3H]LY354740 from rat mGluR2.
Assay [9] is filed under the species Rattus norvegicus. Kind of assay: Antagonist activity at mGluR group 2 in rat hippocampus assessed as reversal of LY-354740-mediated inhibition of fEPSPs in dentate gyrus. Type of assay: functional, tissue-based.
Assay [10] is filed under the species Rattus norvegicus. Kind of assay: Antagonist activity at mGluR group 2 in rat hippocampus assessed as blockade of LY-354740-mediated inhibition of fEPSPs after 3 hrs. Type of assay: functional, tissue-based.
Assay [11] addresses Metabotropic glutamate receptor 8 (Rattus norvegicus) (UniProt P70579). The description is as §1.

Molecules are shown by their SMILES. Active and inactive are the calls of the source. The rule behind the calls is not given here.

For orientation: IC50 means the point on the concentration scale where inhibition reaches its midpoint.

T1 sequence (P31421 whole entry): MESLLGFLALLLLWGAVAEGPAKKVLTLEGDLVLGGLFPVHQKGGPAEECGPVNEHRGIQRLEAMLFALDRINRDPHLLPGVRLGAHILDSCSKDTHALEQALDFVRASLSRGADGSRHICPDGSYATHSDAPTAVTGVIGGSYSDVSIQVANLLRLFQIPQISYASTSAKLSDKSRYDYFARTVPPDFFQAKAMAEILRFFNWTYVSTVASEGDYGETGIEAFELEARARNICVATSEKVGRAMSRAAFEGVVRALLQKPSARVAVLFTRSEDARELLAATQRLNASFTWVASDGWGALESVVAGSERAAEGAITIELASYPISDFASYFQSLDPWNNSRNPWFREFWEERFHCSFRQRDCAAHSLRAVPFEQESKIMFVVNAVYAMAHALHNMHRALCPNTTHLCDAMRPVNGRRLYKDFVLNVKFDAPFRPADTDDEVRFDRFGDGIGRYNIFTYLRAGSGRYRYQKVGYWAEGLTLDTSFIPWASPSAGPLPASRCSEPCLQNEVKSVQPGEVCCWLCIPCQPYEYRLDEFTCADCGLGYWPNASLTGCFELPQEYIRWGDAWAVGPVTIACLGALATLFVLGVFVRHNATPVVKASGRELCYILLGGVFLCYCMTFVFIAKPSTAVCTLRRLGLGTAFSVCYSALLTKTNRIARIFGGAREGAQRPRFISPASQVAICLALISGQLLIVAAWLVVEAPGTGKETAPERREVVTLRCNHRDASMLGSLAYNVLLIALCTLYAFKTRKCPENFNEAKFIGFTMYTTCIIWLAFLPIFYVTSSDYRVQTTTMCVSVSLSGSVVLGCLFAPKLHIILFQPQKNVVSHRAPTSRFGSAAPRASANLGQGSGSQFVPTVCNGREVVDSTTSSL
Chain of Metabotropic glutamate receptor 3 (Rattus norvegicus) (P31422 23-879 limits assumed): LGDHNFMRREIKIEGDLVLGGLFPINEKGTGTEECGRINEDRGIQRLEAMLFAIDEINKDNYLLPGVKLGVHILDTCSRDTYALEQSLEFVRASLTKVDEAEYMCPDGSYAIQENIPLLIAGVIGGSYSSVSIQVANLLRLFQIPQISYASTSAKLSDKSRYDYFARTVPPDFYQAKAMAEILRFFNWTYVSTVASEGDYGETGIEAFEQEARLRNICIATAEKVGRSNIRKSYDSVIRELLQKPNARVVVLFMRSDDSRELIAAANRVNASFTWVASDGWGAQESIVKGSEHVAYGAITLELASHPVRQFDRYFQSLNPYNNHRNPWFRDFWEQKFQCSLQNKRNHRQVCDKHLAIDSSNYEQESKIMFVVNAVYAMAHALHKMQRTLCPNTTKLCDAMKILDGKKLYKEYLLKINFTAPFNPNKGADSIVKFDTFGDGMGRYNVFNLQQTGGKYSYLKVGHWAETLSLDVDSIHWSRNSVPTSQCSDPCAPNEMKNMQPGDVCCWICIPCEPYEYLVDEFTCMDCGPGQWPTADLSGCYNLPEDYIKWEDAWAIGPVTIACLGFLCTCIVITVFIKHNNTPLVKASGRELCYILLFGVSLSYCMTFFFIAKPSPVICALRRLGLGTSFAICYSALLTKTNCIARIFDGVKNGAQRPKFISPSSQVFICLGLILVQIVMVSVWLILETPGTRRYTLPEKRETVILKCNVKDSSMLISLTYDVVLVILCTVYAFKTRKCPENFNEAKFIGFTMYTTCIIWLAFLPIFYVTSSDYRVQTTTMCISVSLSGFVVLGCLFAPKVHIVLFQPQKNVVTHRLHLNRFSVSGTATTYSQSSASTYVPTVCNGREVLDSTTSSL
Chain of Metabotropic glutamate receptor 2 (Rattus norvegicus) (P31421 19-872 limits assumed): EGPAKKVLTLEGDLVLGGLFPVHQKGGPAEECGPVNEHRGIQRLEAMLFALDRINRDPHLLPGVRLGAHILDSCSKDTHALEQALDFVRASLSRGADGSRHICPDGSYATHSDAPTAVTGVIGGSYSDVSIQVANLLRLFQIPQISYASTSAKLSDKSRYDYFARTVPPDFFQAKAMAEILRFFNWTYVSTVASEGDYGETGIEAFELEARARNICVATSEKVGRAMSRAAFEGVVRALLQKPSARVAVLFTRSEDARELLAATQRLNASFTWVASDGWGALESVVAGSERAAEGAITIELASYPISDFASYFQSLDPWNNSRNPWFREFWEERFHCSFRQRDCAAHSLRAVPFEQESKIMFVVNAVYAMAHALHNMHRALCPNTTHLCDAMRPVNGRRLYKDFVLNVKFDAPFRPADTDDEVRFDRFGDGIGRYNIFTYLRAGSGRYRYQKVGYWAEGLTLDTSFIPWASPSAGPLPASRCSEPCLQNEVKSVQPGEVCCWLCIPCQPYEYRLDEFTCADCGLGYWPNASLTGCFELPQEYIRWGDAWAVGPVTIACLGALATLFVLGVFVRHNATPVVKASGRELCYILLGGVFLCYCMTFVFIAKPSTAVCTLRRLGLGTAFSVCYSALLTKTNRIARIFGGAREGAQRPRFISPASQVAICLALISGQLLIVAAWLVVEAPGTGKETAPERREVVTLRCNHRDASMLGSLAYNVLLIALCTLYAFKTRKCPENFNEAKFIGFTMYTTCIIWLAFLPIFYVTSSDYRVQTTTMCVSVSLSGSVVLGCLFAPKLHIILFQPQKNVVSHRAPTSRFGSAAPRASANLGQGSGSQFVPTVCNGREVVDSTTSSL
Chain of Metabotropic glutamate receptor 8 (P70579 whole entry): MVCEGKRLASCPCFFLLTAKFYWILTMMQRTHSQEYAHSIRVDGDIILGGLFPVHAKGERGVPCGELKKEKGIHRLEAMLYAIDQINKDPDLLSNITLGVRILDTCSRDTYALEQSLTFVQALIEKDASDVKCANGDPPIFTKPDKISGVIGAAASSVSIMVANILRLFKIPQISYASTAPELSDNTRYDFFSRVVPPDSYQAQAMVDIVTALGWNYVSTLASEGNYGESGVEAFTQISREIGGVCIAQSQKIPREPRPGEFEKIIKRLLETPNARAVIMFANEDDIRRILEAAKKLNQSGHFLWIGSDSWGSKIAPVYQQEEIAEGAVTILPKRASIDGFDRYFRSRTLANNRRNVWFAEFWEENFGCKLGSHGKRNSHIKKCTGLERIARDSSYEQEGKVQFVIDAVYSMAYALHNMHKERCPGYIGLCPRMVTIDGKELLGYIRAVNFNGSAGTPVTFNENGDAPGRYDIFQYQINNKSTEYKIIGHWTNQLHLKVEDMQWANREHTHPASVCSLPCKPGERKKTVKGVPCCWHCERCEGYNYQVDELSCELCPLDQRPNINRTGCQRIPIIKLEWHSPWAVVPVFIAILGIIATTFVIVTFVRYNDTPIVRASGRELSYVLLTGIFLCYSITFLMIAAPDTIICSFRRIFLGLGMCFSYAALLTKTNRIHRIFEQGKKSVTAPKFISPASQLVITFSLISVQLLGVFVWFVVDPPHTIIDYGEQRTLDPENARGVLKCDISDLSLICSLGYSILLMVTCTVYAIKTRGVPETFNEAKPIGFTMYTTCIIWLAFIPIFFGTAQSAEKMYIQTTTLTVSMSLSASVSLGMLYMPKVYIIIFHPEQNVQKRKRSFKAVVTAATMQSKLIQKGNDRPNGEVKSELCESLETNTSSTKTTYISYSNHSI
Chain of Metabotropic glutamate receptor 8 (Rattus norvegicus) (P70579 whole entry): as above

Take `O=C1CC(c2cccc(-n3ccnn3)c2)=Nc2cc(O)c(C#Cc3ccc(F)cc3)cc2N1`: the outcome in assay [1] and in assay [7] was Active. Further, the figures for the IC50 in assay [2], in assay [3] and in assay [5] were 20 nM, 5 µM and 17 nM, respectively. Also, the result in [4] and in assay [6] was inactive.

Regarding `CN(C)c1cc2c(cc1C#Cc1ccccc1)NC(=O)CC(c1cccc(-n3ccnn3)c1)=N2`, the IC50 in assay [2] turned out to be 36 nM.

Take `O=C1CC(c2cccc(-n3ccnn3)c2)=Nc2ccc(C#Cc3ccc(F)cc3)cc2N1`: the values for the IC50 in assay [2] and in [5] were 6 nM and 12 nM, respectively.

As for `O=C1CC(c2cccc(-n3nncc3CO)c2)=Nc2cc(O)c(C#Cc3ccc(F)cc3)cc2N1`, the concentration for half-maximal inhibition (IC50) in [2] stood at 378 nM.

With `Cc1ccc2c(c1)NC(=O)CC(c1ccccc1)=N2`, the IC50 in assay [8] is 6.4 µM.

As to `N#CCOc1cc2c(cc1C#Cc1ccccc1)NC(=O)CC(c1cccc(-n3ccnc3)c1)=N2`, the IC50 in assay [2] came to 18 nM; in assay [5], 13 nM.

`N#Cc1cccc(C2=Nc3ccc(C#Cc4ccccc4)cc3NC(=O)C2)c1`: the IC50 in assay [5] turned out to be 17 nM.

Regarding `O=C1CC(c2cccc(-n3ccnc3)c2)=Nc2cc(OCCO)c(C#Cc3ccccc3)cc2N1`, the IC50 in assay [2] amounted to 64 nM.

For `O=C1CC(c2cccc(-n3ccnc3)c2)=Nc2ccc(C#Cc3ccccc3F)cc2N1`, the IC50 in assay [2] worked out at 20 nM; in assay [5], 16 nM.

For `COCCOc1cc2c(cc1C#Cc1ccccc1)NC(=O)CC(c1cccc(-n3ccnc3)c1)=N2`, the IC50 worked out at 23 nM in [2] and 15 nM in [5].

In the case of `O=C1CC(c2cccc(-n3cnnn3)c2)=Nc2ccc(C#Cc3ccc(F)cc3)cc2N1`, in assay [2], the IC50 amounted to 72 nM.

For the compound `O=C1CC(c2cccc(-n3ccnc3)c2)=Nc2ccc(C#Cc3ccc(F)cc3)cc2N1`, the 50% inhibitory concentration (IC50) in [2] and in assay [5] was 9 nM throughout.

Take `O=C1CC(c2cccc(-n3cncn3)c2)=Nc2ccc(C#Cc3ccc(F)cc3)cc2N1`: the IC50 in assay [2] worked out at 98 nM.

As to `O=C1CC(c2cccc(-n3ccnc3)c2)=Nc2cc(O)c(C#Cc3ccc(F)cc3)cc2N1`, the outcome (in the assay filed under Rattus norvegicus [9]; in assay [1]; in the assay filed under Rattus norvegicus [10]; in [7]) was Active. The IC50 in assay [2] stood at 26 nM; in assay [5] it was 11 nM. The outcome in assay [11], in [4] and in assay [6] was inactive.

With `Cc1cn(-c2cccc(C3=Nc4ccc(C#Cc5ccc(F)cc5)cc4NC(=O)C3)c2)cn1`, the IC50 in assay [2] is 98 nM.

Consider `O=C1CC(c2cccc(-n3ccnc3)c2)=Nc2ccc(C#Cc3ccccc3)cc2N1`, for which the IC50 in assay [2] worked out at 13 nM; in assay [5], 10 nM.

Turning to `Cc1cn(-c2cccc(C3=Nc4ccc(C#Cc5ccccc5)cc4NC(=O)C3)c2)c(C)n1`, the half-inhibitory concentration (IC50) in [2] came out at 170 nM.

Consider `CN(CCO)c1cc2c(cc1C#Cc1ccc(F)cc1)NC(=O)CC(c1cccc(-n3ccnc3)c1)=N2`, for which the IC50 in [2] is 140 nM.

With `Cn1ccnc1-c1cccc(C2=Nc3ccc(C#Cc4ccccc4)cc3NC(=O)C2)c1`, the IC50 in assay [2] was found to be 730 nM.

Consider `O=C1CC(c2cccc(-n3ccnc3)c2)=Nc2cc(OCCO)c(C#Cc3ccc(F)cc3)cc2N1`, for which, in [2], the IC50 came out at 46 nM.
